# Test results reported in patent US20130203726A1, “FtsZ INHIBITORS AS POTENTIATORS OF BETA-LACTAM ANTIBIOTICS AGAINST METHICILLIN-RESISTANT STAPHYLOCOCCUS” (priority 2010, published 2013).
# Where two headings read alike, the source gives them in different places.
# Columns and labels:
# [1] = test system: MRSA COL strains bearing xylose-regulated antisense fragments corresponding to FtsZ, FtsA, or FtsW; type: cell-based, Staphylococcus aureus; details: 50 mM xylose (antisense induced) versus no xylose, FtsZ-AS
# Method: See Forsyth et al., 2002, Mol. Microbial 43:1387-1400 for details concerning plasmid and antisense interference construction. Strains were grown overnight in Luria Bertani (LB) Miller broth at 37° C. containing 34 μg/ml chloramphenicol. Assay plates were prepared by seeding 10^7 cells/ml of each culture into 48° C. cooled LB Miller agar containing 34 μg/ml chloramphenicol. To partially repress FtsZ expression, 50 mM xylose was supplemented to plates. This antisense inducer concentration modestly impairs growth of each strain equally, reflecting a 20% inhibitory growth concentration (i.e., xylose IC20˜50 mM).
# The following antibiotics were then spotted on the surface of the plates: carbapenems, imipenem (12.8 μg) and ertapenem (51.2 μg); cephalosporins, cefepime (102.4 μg), ceftazidime (102.4 μg), and ceftriaxone (102.4 μg); and the β-lactam piperacillin (combined with the […] in a 8:1 molar ratio (25.6 μg). As a control, MRSA COL was identically tested but under conditions where no xylose was supplemented into the medium (i.e., non-repressed FtsZ) as well as by identically processing the MRSA COL strain transformed with pEPSA5 but lacking an antisense fragment (data not shown). As a control for the specificity of ftsZ, ftsA, and ftsW mutant susceptibility to β-lactams, the non-β-lactam cell wall antibiotic, vancomycin (0.8 μg) was additionally spotted. Plates were then incubated at 37° C. for 16 h and photographed.
# The effect FtsZ, FtsA, or FtsW imparts on MRSA susceptibility to the above antibiotics was determined by comparing their zone of inhibition between plates supplemented with antisense inducer (50 mM xylose) versus those without xylose. Differential antibiotic zones of inhibition between FtsZ, FtsA, and FtsW antisense bearing strains grown under xylose induced versus non-induced conditions reflect Fts gene-dependent restoration of MRSA COL susceptibility to β-lactams.
# [2] = test system: MRSA COL; assay: Checkerboard assay (MIC, FIC index) against MRSA; type: cell-based, S. aureus
# Excerpt: (§1) The checkerboard method is the technique most frequently used to assess antimicrobial combinations in vitro. See Antibiotics in Laboratory Medicine Victor Lorian ed. 2005. The term. checkerboard refers to the pattern of microtiter wells formed by multiple dilutions of the two antimicrobials being tested in concentrations equal to, above and below their minimal inhibitory concentrations (MICs) against the organisms being tested. The checkerboard consists of columns in which each well contains the same amount of Drug A being two-fold diluted along the x-axis and rows in which each well contains the same amount of Drug B being two-fold diluted on the Y-axis. The result is that each well contains a unique combination of the two drugs being tested. Also tested is the antimicrobial activity of each agent singly.
# (§2) The 96 well U-bottom polypropylene microtiter plates (Fisher Scientific, Pittsburgh, Pa.) were inoculated with 90 μl of bacterial cells (grown in Tryptic Soy Broth at 37° C. for 18 hours with rotary shaking) diluted in cation-adjusted Mueller Hinton broth to a final concentration of ˜5.5×10^5 CFU/mL.
# (§3) β-lactam antibiotics were two-fold serially diluted along the Y-axis of 96-well U-bottom microtiter dishes (Fisher Scientific, Pittsburgh, Pa.) in microbiological growth media [brain heart infusion broth (BBL)]. FtsZ inhibitors were serially diluted along the X-axis of 96-well U-bottom microtiter dishes in microbiological growth media. The plates were inoculated with bacterial cells (grown in Trypticase Soy Broth at 37° C. for 18 hours with rotary shaking) to a final concentration of ˜5×10^5 CFU/mL. Test plates were incubated stationery at 37° C. for 22-24 hours.
# (§4) The FIC index is most commonly used to report results of studies with antimicrobial combinations. In this method, the FIC for each drug is derived by dividing the concentration of that drug necessary to inhibit growth in a given combination by the MIC of the test organism for that drug alone. The FTC index (FICI) is then calculated by summing the separate FICs of the drugs present in that test well. Synergism is defined as an FTC index of 0.5.
# [3] = test system: MRSE CLB 26329; assay: Checkerboard assay (MIC, FIC index) against MRSE; type: cell-based, S. epidermidis
# Excerpt: as §1, §2, §3, §4
# [4] = test system: MRSA COL; assay: MRSA deep thigh infection model in neutropenic mice; type: in vivo, Staphylococcus aureus; details: for reduction of bacterial burden per thigh: 24 hr
# Method: Female mice (20-25 g) were rendered neutropenic via intraperitoneal injection of cyclophosphamide (Mead Johnson Pharmaceuticals) four days (150 mg/kg) and one day (100 mg/kg) prior to experimental infection. Neutropenic mice were infected on Day 0 via intramuscular thigh injection of 0.1 ml containing ˜1-2×10^6 CPU Staphylococcus aureus (strain B, MRSA COL) from freshly grown culture broth. Two hours post thigh infection, mice were randomized and groups were administered increasing doses of PC190723 (50, 100, 200 mg/kg orally (p.o.), t.i.d ([…]); equivalent to 150, 300, and 600 mg/kg/24 hr) in the absence or presence of imipenem/cilastatin (10 mg/kg/50 mg/kg subcutaneously (s.c.), t.i.d. ([…]); equivalent to 30 mg/kg/24 hr and 150 mg/ kg/24 hr). Assay control groups included non-infected, vehicle-treated mice, vehicle-treated baseline infected (t=0 hr) mice, vehicle-treated 24 hr infected (t=24 hr) mice, and linezolid ((Zyvox IV solution, Bell Medical; 40 mg/kg orally (p.o.), b.i.d. ([…]) equivalent to 80 mg/kg/24 hr).
# Twenty four hours post the initiation of therapy, mice were sacrificed, thighs aseptically removed, placed in 4 ml sterile phosphate buffered saline (Fisher Scientific), and homogenized using a Polytron (Brinkmann Instruments). Homogenates were serially 100-fold diluted in 9.9 ml sterile saline and plated on Mannitol Salt Agar plates. Plates were incubated at 35° C. for 48 hours and colony forming units (CFU) of bacteria remaining per thigh were determined.
# [5] = FtsZ inhibitor in combination with amoxicillin, MRSA COL
# [6] = FtsZ inhibitor in combination with cefazolin, MRSA COL
# [7] = FtsZ inhibitor in combination with cefdinir, MRSA COL
# [8] = FtsZ inhibitor in combination with cefazolin
# [9] = FtsZ inhibitor in combination with cefepime, lowest achievable for PC190723
compound,measurement,setting,value
COc1cc(Cc2cnc(N)nc2N)cc(OC)c1OC [trimethoprim],"change of susceptibility (zone of inhibition) on partial genetic inactivation of FtsZ, FtsA or FtsW",[1],"none of the FtsZ-AS, FtsA-AS, or FtsW-AS strains demonstrated altered hypersensitivity"
O=C(O)c1cn(C2CC2)c2cc(N3CCNCC3)c(F)cc2c1=O [ciprofloxacin],"change of susceptibility (zone of inhibition) on partial genetic inactivation of FtsZ, FtsA or FtsW",[1],"none of the FtsZ-AS, FtsA-AS, or FtsW-AS strains demonstrated altered hypersensitivity"
NC(=O)c1c(F)ccc(OCc2nc3cc(Cl)cnc3s2)c1F [PC190723],lower levels of imipenem required to inhibit growth,"[2]; FtsZ inhibitor at FIC≦0.25 combined with imipenem, MRSA",16 fold
same,FICI,[2]; [5],0.53
same,FICI,[2]; [6],0.38
same,FICI,[2]; [7],0.31
same,FICI,"[2]; FtsZ inhibitor in combination with ertapenem at its clinical breakpoint (8 μg/ml), MRSA",0.5
same,FICI,"[2]; FtsZ inhibitor in combination with imipenem at its clinical breakpoint (4 μg/ml), MRSA",0.31
same,FIC of the FtsZ inhibitor at which synergy with β-lactams was shown,[2]; MRSA,0.25
same,MIC,"[2]; Staphylococcus aureus, agent alone, MRSA, read-out: minimal inhibitory concentration (MIC)",1 µg/mL
same,MIC,"[2]; agent alone, MRSA, FIG. 5 legend, unit not given",1.0
same,reduction of the effective inhibitory concentration of amoxicillin,"[2]; combined with PC190723 at FIC=0.5, MRSA",~32 fold
same,FIC of the FtsZ inhibitor at which synergy with β-lactams was shown,[3],0.25
same,lower levels of imipenem required to inhibit growth,[3]; FtsZ inhibitor at FIC≦0.25 combined with imipenem,32 fold
same,FICI,[3]; [8],0.31
same,FICI,[3]; [9],0.28
same,FICI,[3]; FtsZ inhibitor in combination with ertapenem at its clinical breakpoint (8 μg/ml),0.5
same,FICI,[3]; FtsZ inhibitor in combination with imipenem at its clinical breakpoint (4 μg/ml),0.31
same,MIC,"[3]; Staphylococcus epidermidis, agent alone, read-out: minimal inhibitory concentration (MIC)",1 µg/mL
same,MIC,"[3]; agent alone, FIG. 5 legend, unit not given",1.0
same,antibacterial activity compared with linezolid,"[4]; 10 mg/kg imipenem + 200 mg/kg PC190723, linezolid 40 mg/kg p.o. b.i.d.",approaching linezolid-like antibacterial activity
same,reduction of bacterial burden per thigh,"[4]; PC190723 50 mg/kg p.o. t.i.d. + imipenem 10 mg/kg s.c. t.i.d., FIG. 7A",−0.4 Log 10 CFU
same,reduction of bacterial burden per thigh,"[4]; PC190723 100 mg/kg p.o. t.i.d. + imipenem 10 mg/kg s.c. t.i.d., FIG. 7A",−1.2 Log 10 CFU
same,reduction of bacterial burden per thigh,"[4]; PC190723 100 mg/kg p.o. t.i.d. + imipenem 10 mg/kg s.c. t.i.d., FIG. 7B",−1.9 Log 10 CFU
same,reduction of bacterial burden per thigh,"[4]; PC190723 200 mg/kg p.o. t.i.d. + imipenem 10 mg/kg s.c. t.i.d., FIG. 7A",−3.1 Log 10 CFU
same,reduction of bacterial burden per thigh,"[4]; PC190723 200 mg/kg p.o. t.i.d. + imipenem 10 mg/kg s.c. t.i.d., FIG. 7B",−2.6 Log 10 CFU
same,effect on MRSA COL bacterial burden in the thighs,"[4]; monotherapy over 24 hr, imipenem 10 mg/kg s.c. t.i.d. or PC190723 50, 100, 200 mg/kg p.o. t.i.d., neutropenic mice",did not significantly alter
CC[C@H]1OC(=O)[C@H](C)[C@@H](O[C@H]2C[C@@](C)(OC)[C@@H](O)[C@H](C)O2)[C@H](C)[C@@H](O[C@@H]2O[C@H](C)C[C@H](N(C)C)[C@H]2O)[C@](C)(O)C[C@@H](C)CN(C)[C@H](C)[C@@H](O)[C@]1(C)O [azithromycin],"change of susceptibility (zone of inhibition) on partial genetic inactivation of FtsZ, FtsA or FtsW",[1],"none of the FtsZ-AS, FtsA-AS, or FtsW-AS strains demonstrated altered hypersensitivity"
CN[C@H](CC(C)C)C(=O)N[C@H]1C(=O)N[C@@H](CC(N)=O)C(=O)N[C@H]2C(=O)N[C@H]3C(=O)N[C@H](C(=O)N[C@H](C(=O)O)c4cc(O)cc(O)c4-c4cc3ccc4O)[C@H](O)c3ccc(c(Cl)c3)Oc3cc2cc(c3O[C@@H]2O[C@H](CO)[C@@H](O)[C@H](O)[C@H]2O[C@H]2C[C@](C)(N)[C@H](O)[C@H](C)O2)Oc2ccc(cc2Cl)[C@H]1O [vancomycin],"change of susceptibility (zone of inhibition) on partial genetic inactivation of FtsZ, FtsA or FtsW",[1],"none of the FtsZ-AS, FtsA-AS, or FtsW-AS strains demonstrated altered hypersensitivity"
Zantrin Z3,lower levels of cefazolin required to inhibit growth,"[2]; FtsZ inhibitor at FIC≦0.25 combined with cefazolin, MRSA",16 fold
same,FICI,[2]; [5],no synergy was detected
same,FICI,[2]; [6],0.25
same,FICI,[2]; [7],0.5
same,FICI,"[2]; FtsZ inhibitor in combination with cefepime, MRSA COL",0.25
same,FICI,"[2]; FtsZ inhibitor in combination with ceftazidime, MRSA COL",0.28
same,minimal inhibitory concentration (MIC),"[2]; agent alone, MRSA",8−16.0 μg/ml
same,lower levels of cefazolin required to inhibit growth,[3]; FtsZ inhibitor at FIC≦0.25 combined with cefazolin,16 fold
same,FICI,[3]; FtsZ inhibitor in combination with amoxicillin,0.28
same,FICI,[3]; [8],0.31
same,FICI,[3]; FtsZ inhibitor in combination with cefdinir,0.27
same,FICI,[3]; [9],0.16
same,FICI,[3]; FtsZ inhibitor in combination with ceftazidime,0.50
same,minimal inhibitory concentration (MIC),[3]; agent alone,8−16.0 μg/ml
same,fraction of normal amoxicillin concentration needed to display MRSE efficacy,[3]; amoxicillin paired with Z3,1/16
same,reduced cefdinir concentration to restore anti-MRSE activity,[3]; cefdinir paired with Z3,64 fold
C/C=C/C/C=C/CCC(=O)[C@H]1O[C@H]1C(N)=O [cerulenin],"change of susceptibility (zone of inhibition) on partial genetic inactivation of FtsZ, FtsA or FtsW",[1],"none of the FtsZ-AS, FtsA-AS, or FtsW-AS strains demonstrated altered hypersensitivity"
CC(=O)NC[C@H]1CN(c2ccc(N3CCOCC3)c(F)c2)C(=O)O1 [linezolid],"change of susceptibility (zone of inhibition) on partial genetic inactivation of FtsZ, FtsA or FtsW",[1],"none of the FtsZ-AS, FtsA-AS, or FtsW-AS strains demonstrated altered hypersensitivity"
